Experimental data published in patent publication US20110060000A1, “ACRIDINE ANALOGS IN THE TREATMENT OF GLIOMAS” (priority 2009, published 2011).
Entries after “also recorded” stand apart in the source; their conditions may differ. Read-outs that look alike come from different tables or passages of the source.

What was measured:
[1] = system: GRP78 promoter; test: GRP78-luc reporter assay in stably transfected U87-MG clone A5; format: cell-based, human; conditions: for GRP78 promoter driven luciferase (GRP78-luc) expression: result in words
Description: The promoter region contains the sequence of the GRP78 promoter from −139 to +7. In this part of the promoter there are three ER stress responsive elements and the TATA box to which is linked in frame the firefly luciferase sequence.
Compounds were plated in half area 96 well plates at the final concentration of 2 μM in 5 μl of media. Cells were added in 45 μl afterwards at the density of 5000/well. Plates were read after 16 h in an Envision high efficiency plate reader. Results are represented as a plate layout in which different shadings indicate the different rows and the number indicate the different lines. As a standard negative and positive controls were located in the outer columns.
A construct coding a large part of the human GRP78 promoter, attached to the reporter gene firefly luciferase was used (see FIG. 16 for a schematic) (Yoshida et al., 1998).
The promoter region contains the sequence of the GRP78 promoter from −139 to +7. In this part of the promoter there are three ER stress responsive elements and the TATA box to which is linked in frame the firefly luciferase sequence (FIG. 16)(Yoshida et al., 1998). The construct, which was cloned in an expression vector, was transfected into E. Coli, amplified, purified and checked it by enzymatic digestion. Thereafter, C6 and U87-MG were transiently transfected with the plasmid. After 24 hours the cells were challenged with THAP and TUN for 24 hours. Although, in transient transfection only a small part of the cell population expresses the transduced gene, a significant induction by THAP and TUN was detected over 24 hours. Armed with these encouraging data human glioma cells U87-MG were transfected with both the above described construct and a construct carrying resistance to blasticidin. The sensitivity of these cells to the antibiotic has previously been assessed. 24 hours after the transfection the antibiotic at its 75% inhibitory concentration was added. The cells were given time to proliferate. Two pools called P2 and P5 were selected and luciferase expression was assessed. […] Clones from these two pools were isolated. Luciferase expression in the clones was characterized and a clone called A5, in which baseline expression of the construct was reasonably low and induction with two positive controls was large and consistent, was selected. This clone, several back up clones, and the pools were amplified and frozen in sufficient amounts to guarantee continuity in case needed. Next, the effect of the incubation time on luciferase induction was assessed. Since this assay can be affected by false negative due to toxicity of hit compounds, the incubation times were kept as short as possible. Therefore, several incubation times were tested, including 8, 16 and 24 h. The goal was not to incubate longer than 24 hours because toxicity starts to develop at that time point. […] At this time point the induction is about 6-7 fold. Previously, using a different assay, a half a million compound library was screened very easily using 2.5 thousands cells per well in 1536 plates. […] With this cell number the dynamic range is large and the fold of induction of 6-7 is maintained.
It is common practice in the field of high throughput screening to assess the so called z number of the assay. This statistical parameter indicates the suitability of a given assay for high throughput screening. The z-value in a word describes the likelihood of a single point hit not to be false positive. The z value is a number lower than or equal to one. Values above 0.5 indicate a robust assay. Values below 0.5 but above 0 indicate an assay that probably needs to be run in duplicate. Negative values indicate assays whose predictability is very low. Z values are usually determined in a high density format plate usually a 96 well plate in manual conditions or a 384-1536 plate format in automated liquid handling environment. Z value determination has been performed using half area 96 well plates in manual mode. […]

[2] = system: C6 cells; test: Cell viability / gliotoxicity in C6; format: cell-based; conditions: for C6 death relative to astrocytes: cytoplasmic exosaminidase; for inhibition of XTT conversion compared with astrocytes: C6, 24 hours of treatment
Description: (§1) Cells were treated for 48 hours accordingly to axis labels. At the end of the incubation time cells were prepared for the assay according to the manufacturer instructions. Luminescence values were then converted to % of survival.
(§2) Cells were treated for 48 h with the indicated concentrations of the agents. Astrocytes death was limited to 30% or lower. Suprisingly, C6 death was 3 folds higher than in astrocytes at 24 h and increased at 5 folds at 48 h. Data in U78-MG are similar to the C6 data although the effect was slightly lower but always at least 2 to 4 folds the effect seen in astrocytes.
(§3) In order to verify how the hypersensitivity of this signaling pathway in glioma cells affects the survival of the cells, viability assessments were performed using at least three unrelated biochemical tests. Initially, a commercially available kit (Cell Titer Glow) was used in the high throughput screening center for cytotoxicity screening. This test is amenable to high throughput screening techniques and, therefore, can be used for follow up of selected compounds in high or medium throughput settings. […] Since, THAP inhibits SERCA, an ATPase, and it can affect ATP levels directly the effect of THAP and TUN on these 3 cells types was also assessed using a commercially available kit that assesses metatetrazolium salts conversion (XTT). XTT assesses cell viability by probing mitochondrial integrity. […] Finally, viability of U87-MG was also assessed using a system measuring the activity of a house keeping cytosolic enzyme involved in glucose metabolism. Also using this detection system it was evident that glioma cells both C6 and U87-MG were greatly affected by induction of ERSR (FIG. 13). It is well known that prolonged ERSR leads to apoptosis, even in the presence of elevated GRP78 expression if that is coupled to significant protein unfolding. In rat cells this process is actuated via caspase 12 and ultimately via caspase 3 activation. Experiments were conducted in order to determine if the observed effect on cell viability was also paralleled by caspase 12 activation, and if there were differences, as indicated by preliminary viability data, between normal and glioma cells.

[3] = system: U87-MG cells; test: Cell viability / gliotoxicity in U87-MG; format: cell-based
Description: as §1, §2
as §3, with “Experiments were conducted in order to determine if the observed effect on cell viability was also paralleled by caspase 12 activation, and if there were differences, as indicated by preliminary viability data, between normal and glioma cells.” left out

[4] = system: GRP78; test: GRP78 protein expression (SDS-PAGE, immunoblot) in C6; format: cell-based, rat; conditions: for GRP78 expression in C6 after challenge: brief exposure (8 h), FIG. 11; for GRP78 protein expression in C6: graded concentrations, THAP 24 hours, TUN 8 hours
Description: Astrocytes and C6 were exposed to graded concentration of THAP as indicated in the captions for 24 hours. Thereafter, protein were extracted and run on a SDS-PAGE and immunoblotted with an anti-GRP78 antibody. Filters were exposed to ECL and films were impressed and developed (Panel B). Films were digitalized using a high resolution scanner and analyzed used imageJ (NIH). Densitometric values were averaged and plotted in the graph (Panel A). Loading conditions were checked using GAPDH housekeeping gene.
Astrocytes and C6 were exposed to TUN for 8 hours at concentrations ranging from 1.25 μg/ml to 10 μg/ml. Proteins were extracted, separated on a SDS-PAGE and immunoblotted. Filters were exposed to ECL and used to impress films (Panel B). Developed films were subsequently digitized with a high resolution scanner and analyzed with the software ImageJ (NIH). Densitometric values were averaged and plotted in the graph (Panel A).
Cells were treated as specified in the graph labeling. It is evident that glioma cells have enhanced GRP78 expression than astrocytes regardless of the challenging agent. N.T.=untreated; D=DMSO; T=TUN; Th=THAP.

[5] = same concentration range as GRP78-luc increase

Compound | concentration up to which GRP78-luc expression increased, after which the toxic effect was preponderant [1] | hit in Prestwick library screening (value above average of negative controls + 3 SD) ([1]; 2 μM, 5000 cells/well, read after 16 h) | gliotoxicity in C6 [2, 5] | gliotoxicity in U87-MG [3, 5] | GRP78 promoter driven luciferase (GRP78-luc) expression [1] | C6 death relative to astrocytes ([2]; 24 h) [folds] | C6 death relative to astrocytes ([2]; 48 h) [folds] | inhibition of XTT conversion compared with astrocytes [2] | cytotoxicity compared with astrocytes (Cell Titer Glow, ATP content) ([2]; C6, 48 hours) | cytotoxicity compared with astrocytes (Cell Titer Glow, ATP content) ([3]; U87-MG, 48 hours) | GRP78 expression in C6 after challenge [4] | GRP78 protein expression in C6 [4] | cytotoxicity compared with astrocytes (Cell Titer Glow, ATP content) [2] | cytotoxicity compared with astrocytes (Cell Titer Glow, ATP content) [3] | EC50 ([4]; Rattus norvegicus, Astrocyte, stated in GRP78 expression experiment, astrocytes and C6, read-out: EC50 of the substance) [nM]
CCN(CC)CCCC(C)Nc1c2ccc(Cl)cc2nc2ccc(OC)cc12 (stereo not drawn) [quinacrine] | up to 10 μM | potentially attractive lead compounds | killed very effectively | killed very effectively |  |  |  |  |  |  |  |  |  |  | 
tunicamycin |  |  |  |  | increase of luciferase expression; also recorded: concentration dependent increase | 3 | 5 | significantly higher inhibition of XTT conversion than astrocytes | significantly higher cytotoxicity | significantly higher cytotoxicity | enhanced significantly | concentration related elevation of GRP78 protein expression; also recorded: larger in C6 than in astrocytes at every concentration tested |  |  | 
C/C=C(/C)C(=O)O[C@H]1C(C)=C2[C@H]([C@@H]1OC(=O)CCCCCCC)[C@@](C)(OC(C)=O)C[C@H](OC(=O)CCC)[C@@]1(O)[C@H]2OC(=O)[C@@]1(C)O [THAP, thapsigargin] |  |  |  |  | increase of luciferase expression; also recorded: concentration dependent increase | 3 | 5 | significantly higher inhibition of XTT conversion than astrocytes |  |  | enhanced significantly | stronger elevation; also recorded: dramatically higher elevation of GRP78 | significantly higher cytotoxicity | significantly higher cytotoxicity | 2 to 5
